This is an account of results in patent publication US4629737A, “Secondary amines and use in pharmaceutical compositions” (Beecham Group p.l.c., priority 1982, dated 1986).

The subject of assay [1] is platelet aggregation in human whole blood. The experiment in a line: Collagen-induced platelet aggregation in human whole blood in vitro. The assay is classed as cell-based. The note with it: 3 mins pre-incubation. The method, then: Collagen-induced platelet aggregation in human whole blood in vitro.
Collagen added to stirred citrated blood causes platelet aggregation. As the platelets aggregate, the concentration of single platelets falls. […] Inhibitors of aggregation, such as aspirin and dipyridamole, reduce the response to collagen.
Blood drawn from volunteers who denied taking aspirin within the previous seven days was mixed with 0.1 vol 129 mM trisodium citrate, dispensed into 0.5 ml aliquots and kept at 25° C. Collagen (Hormon-Chemie, Munich) or 154 mM NaCl (control) was added to each aliquot of blood stirred at 1100 rpm in an aggregometer at 37° C. after 3 mins pre-incubation with compound or appropriate solvent. Aggregates were fixed by addition of 0.5 vol 4.5% formaldehyde or 0.05 vol phosphate-buffered glutaraldehyde. Single platelets were counted electronically. Responses, expressed as percent fall in platelet count, were obtained to a range of collagen concentrations. The concentration producing 50% maximal effect (EC50) was estimated from log10 concentration-response curves. Dose-ratios were calculated by dividing the EC50 obtained in the presence of compound under test by the control EC50.

For a further assay, the system named is right atrium. The experiment in a line: Isolated rat atria screen: rate of spontaneously beating right atrium. Further details: species or system Sprague-Dawley male rats. The settings on record: for Emax: maximal effect relative to isoprenaline maximum (=1), read-out: Rate i.a. (intrinsic activity). The method, then:
(§1) Sprague-Dawley male rats (300-400 g) are killed and the right and left atria dissected out independently and mounted on a combined tissue holder/electrode. The tissues are then immersed in a glass bath containing Krebs solution maintained at 32° C. The rate of the spontaneously beating right atrium (via an isometric transducer and a ratemeter) and the tension of the electrically paced left atrium (via an isometric transducer) are recorded on an M19 chart recorder.
(§2) After an initial stabilization period, the tissues are exposed to a maximal concentration of isoprenaline (10^-7 M). The tissues are then washed several times until rate and tension return to baseline level. A dose-response curve to the test compound is then carried out.
(§3) Responses to each concentration of test compound are expressed as a percentage of the maximal responses to isoprenaline. Results are given in the form of (a) intrinsic activity (i.a.) (maximal effect of test compound with respect to isoprenaline maximum, i.e. isoprenaline intrinsic activity=1) and (b) EC50 (the molar concentration at which the test compound produces 50% of its own maximum response).

Assay [2] can be described thus: Effect on energy expenditure of mice. The assay is classed as in vivo, Female CFLP mice. The note with it: Mus musculus; for response vs control in vivo at 21.4 mg/kg / response vs control in vivo at 23 mg/kg: po; for response vs control in vivo at 23.9 mg/kg: 23.9 mg/kg po. Put shortly: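 Female CFLP mice (~24 g, fed ad lib; n=12 per group) dosed orally with compound as the hydrochloride (1 mol HCl per mol) in water, vehicle controls receiving water. Energy expenditure over 21 h post-dose calculated from outflow air volume and oxygen content by the Weir method.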

The next assay deals with left atrium. The assay is described as follows: Isolated rat atria screen: tension of electrically paced left atrium. On the set-up: species or system Sprague-Dawley male rats. The note with it: for EC50: concentration producing 50% of its own maximum response; for Emax: maximal effect relative to isoprenaline maximum (=1), read-out: Tension i.a. (intrinsic activity). The method, then:
as §1, §2, §3

The test system of the next assay is blood glucose. The experiment in a line: Hypoglycaemic activity: reduction in area under blood glucose curve after glucose load. The assay is classed as in vivo, Female CFLP mice. The note with it: Mus musculus, read-out: % Reduction in area under Blood Glucose Curve. Put shortly:
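Female CFLP mice (~25 g, 24 h fasted, n=6) dosed orally with aqueous compound; water controls. Glucose 1 g/Kg s.c. given 30 min later, tail blood glucose sampled every 30 min for 120 min. Activity defined as significant (P<0.05) reduction versus controls; 2 h glucose AUC compared with controls.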

Another assay deals with rat ear. The experiment in a line: Topical anti-inflammatory activity, croton oil induced rat ear inflammation. In kind it is in vivo. The note with it: 1.00 mg/rat ear; 6 h; shown by significant (5% level) reduction in ear weight vs non-drug treated control. The method, then:
The method used is based on that described by G. Tonelli et al (Endocrinology, 77, 625-634, 1965). An inflammation is induced in the rat ear by the application of 50 μl of a 1% solution of croton oil in tetrahydrofuran, test compounds being dissolved in the irritant vehicle. After 6 hours the inflammation is assessed by killing the animals and weighing the ears. Topical anti-inflammatory activity of a compound is generally considered to be shown when a significant (5% level) reduction in ear weight is seen compared to non-drug treated control.

The mark [3] stands for this setting: final concentration in whole blood 200 μM.
Where [4] appears, read: 3 h, read-out: Mean Energy Expenditure (0-3 h).
Setting [5] is: 21 h, read-out: Mean Energy Expenditure (0-21 h).

Counter-ions that a name gives are not always drawn. Like-named read-outs stand apart in the source and are kept apart here.

For `CC(=O)Oc1ccccc1C(=O)O` [Aspirin, reference compound], in assay [1] (setting [3]), the “DOSE RATIO (EC50 of collagen with compound / control EC50)” value is 2.0 ± 0.1.
Regarding `OCCN(CCO)c1nc(N2CCCCC2)c2nc(N(CCO)CCO)nc(N3CCCCC3)c2n1` [Dipyridamole, reference compound], the “DOSE RATIO (EC50 of collagen with compound / control EC50)” value in assay [1] (setting [3]) was found to be 3.7 ± 1.1.
Regarding `COC(=O)COc1ccc(CC(C)NCC(OC)c2cccc(Cl)c2)cc1.Cl` (stereo not shown) [Example 1, N-[2-(4-Carbomethoxymethoxyphenyl)-1-methylethyl]-2-methoxy-2-(3-chlorophenyl)ethanamine hydrochloride], the “DOSE RATIO (EC50 of collagen with compound / control EC50)” value in assay [1] (final concentration in whole blood 300 μM) is 6.9. Moreover, the Emax with right atrium came out at 0%; in the assay on left atrium it was 30%. Further, the response vs control in vivo at 21.4 mg/kg in assay [2] (setting [4]) was 151%; in assay [2] (setting [5]), 138%. This molecule also displayed an EC50 in the assay with left atrium of 30 µM. Besides, the inhibition in vivo at 0.25 µmol/kg in the assay with blood glucose (po, 2 h) came out at 47%. Also, the “Topical anti-inflammatory ACTIVITY” value with rat ear is given as “Active”.
As to `CNC(=O)COc1ccc(CC(C)NCC(OC)c2cccc(C(F)(F)F)c2)cc1` (stereo not shown) [Example 7, N-[2-(4-Methylaminocarbonylmethoxyphenyl)-1-methylethyl]-2-methoxy-2-(3-trifluoromethylphenyl)ethanamine hydrochloride], the figures for the EC50 in the assay on right atrium (concentration producing 50% of its own maximum response) and with left atrium were 1.5 µM and 36 µM, respectively. Further, the Emax in the assay on right atrium came out at 6%; in the assay on left atrium it was 23%. In addition, the response vs control in vivo at 23 mg/kg stood at 143% in assay [2] (setting [4]) and 123% in assay [2] (setting [5]). In addition, the inhibition in vivo at 2.5 µmol/kg with blood glucose (po, 2 h) is 32%.
For the molecule `CCCOC(CNC(C)Cc1ccc(OCCNC)cc1)c1cccc(Cl)c1` (stereo not shown) [Example 29, N-[2-(4-(2-Methylaminoethoxy)phenyl)-1-methylethyl]-2-^n propoxy-2-(3-chlorophenyl)ethanamine dihydrochloride], the “DOSE RATIO (EC50 of collagen with compound / control EC50)” value in assay [1] (final concentration in whole blood 100 μM) is 10.8. The response vs control in vivo at 23.9 mg/kg in assay [2] (0-3 h, read-out: Mean Energy Expenditure (0-3 h)) was determined as 144%; in assay [2] (0-21 h, read-out: Mean Energy Expenditure (0-21 h)), 118%. Besides, the inhibition in vivo at 25 µmol/kg in the assay on blood glucose (25 μmol/Kg oral, 2 h after glucose 1 g/Kg s.c., vs control) came out at 43%. Also, the “Topical anti-inflammatory ACTIVITY” value in the assay on rat ear is “Active”.

In general, EC50 refers to the concentration that produces a half-maximal response. Low readings indicate higher potency in that assay, high ones lower potency in that assay.
